Here are results for nine compounds from PubChem BioAssay (NCI).

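Interpolation was linear, between the two tested concentrations surrounding the appropriate level; five concentrations were tested over 48 hours in 96-well plates. The concentration for full growth arrest is given as TGI.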

Test systems include 786-0 renal; A498 renal; ACHN renal; CAKI-1 renal; COLO 205 colon; HOP-62 NSCLC; HOP-92 NSCLC; IGROV1 ovarian; MDA-MB-231 breast; MOLT-4 leukemia; NCI-H226 lung; OVCAR-5 ovarian; RPMI-8226 leukemia; SK-MEL-5 melanoma; U251 CNS; LOX IMVI melanoma; MALME-3M melanoma.
Assay in all cases: NCI tumour cell line growth inhibition, 48 h

With `N#CCCN(CCC#N)c1ccc(C(N=Nc2ccc(Cl)cc2)=Nc2ccccc2)cc1`, the TGI in the experiment with 786-0 renal stood at 28 µM; with A498 renal it was 34.5 µM; with ACHN renal, 27.2 µM; in the experiment with CAKI-1 renal it was 26.1 µM; in the experiment on COLO 205 colon, 12.4 µM; in the experiment on HOP-62 NSCLC, 28.2 µM. The TGI in the experiment with HOP-92 NSCLC was 32.3 µM; in the experiment with IGROV1 ovarian, 24.6 µM; in the experiment on MDA-MB-231 breast, 33.8 µM; in the experiment with MOLT-4 leukemia it was 89.4 µM; in the experiment on NCI-H226 lung, 31.9 µM; in the experiment with OVCAR-5 ovarian, 26 µM. Further, the figures for the TGI in the experiment with RPMI-8226 leukemia, with SK-MEL-5 melanoma and in the experiment with U251 CNS were above 100 µM, 5.13 µM and 32.4 µM, respectively.
Turning to `CC(C)=Cc1cc(C)c2c3c(c(O)c(O)c(C)c13)C(C)=CC2=O`, the TGI with 786-0 renal came to 64.8 µM; in the experiment with A498 renal, 47.5 µM; with ACHN renal, 56.2 µM; with CAKI-1 renal, 58.5 µM; with COLO 205 colon, 26.6 µM; in the experiment with HOP-62 NSCLC, 47.2 µM. The TGI in the experiment on HOP-92 NSCLC was 38.6 µM; with IGROV1 ovarian it was above 100 µM; in the experiment with LOX IMVI melanoma it was 38 µM; with MDA-MB-231 breast it was 64.4 µM; with MOLT-4 leukemia, 54.7 µM; in the experiment on NCI-H226 lung it was 50.9 µM. In addition, the TGI was 73.3 µM in the experiment with OVCAR-5 ovarian, 15 µM with RPMI-8226 leukemia, 35 µM in the experiment on SK-MEL-5 melanoma and 92 µM in the experiment with U251 CNS.
In the case of `O=C1c2c(O)cc(O)cc2C(C2OC(CO)C(O)C(O)C2O)c2cc(CO)cc(O)c21` (stereo not given), the TGI in the experiment on 786-0 renal, with A498 renal, in the experiment with ACHN renal, with COLO 205 colon, in the experiment with HOP-62 NSCLC and in the experiment with HOP-92 NSCLC was above 100 µM in each case. Moreover, the TGI with IGROV1 ovarian, with MALME-3M melanoma, in the experiment with MDA-MB-231 breast, with MOLT-4 leukemia, in the experiment with NCI-H226 lung and in the experiment with OVCAR-5 ovarian was above 100 µM each time. Further, the TGI in the experiment with RPMI-8226 leukemia, with SK-MEL-5 melanoma and in the experiment on U251 CNS was above 100 µM in each case.
`O=S(=O)(O)c1cc(S(=O)(=O)O)c2cc(N=Nc3c(O)ccc4ccccc34)ccc2c1`: the TGI in the experiment on 786-0 renal, in the experiment on ACHN renal, with CAKI-1 renal, in the experiment on COLO 205 colon, in the experiment on HOP-62 NSCLC and in the experiment with HOP-92 NSCLC was above 100 µM in each case. The TGI with IGROV1 ovarian, in the experiment on LOX IMVI melanoma, with MALME-3M melanoma, in the experiment with MDA-MB-231 breast, in the experiment on MOLT-4 leukemia and in the experiment with NCI-H226 lung was above 100 µM in each case. The TGI with OVCAR-5 ovarian, in the experiment with RPMI-8226 leukemia, in the experiment with SK-MEL-5 melanoma and in the experiment on U251 CNS was above 100 µM each time.
With `c1ccc2c(c1)nc1n2CSCC1`, the TGI with 786-0 renal, in the experiment on A498 renal, in the experiment on ACHN renal, in the experiment on CAKI-1 renal, in the experiment with COLO 205 colon and with HOP-62 NSCLC was above 100 µM in each case. The TGI in the experiment on HOP-92 NSCLC, in the experiment with IGROV1 ovarian, in the experiment with LOX IMVI melanoma, in the experiment with MDA-MB-231 breast, in the experiment with MOLT-4 leukemia and in the experiment on NCI-H226 lung was above 100 µM in each case. The TGI with OVCAR-5 ovarian, in the experiment with RPMI-8226 leukemia, in the experiment with SK-MEL-5 melanoma and in the experiment on U251 CNS was above 100 µM in each case.
Consider `CN(C)CCCNc1ccc2nnn3c4ccc(OC(=O)c5ccccc5)cc4c(=O)c1c23`, for which the TGI was 17.5 µM in the experiment with 786-0 renal; 25.4 µM in the experiment on A498 renal; 16.5 µM in the experiment on ACHN renal; 10.7 µM in the experiment on CAKI-1 renal; 28.9 µM in the experiment with COLO 205 colon; 20.9 µM with HOP-62 NSCLC. Further, the TGI with HOP-92 NSCLC was found to be 39.2 µM; in the experiment with IGROV1 ovarian, 36.3 µM; with LOX IMVI melanoma it was 15.2 µM; with MALME-3M melanoma it was 29.2 µM; in the experiment on MDA-MB-231 breast, 27.3 µM; in the experiment on MOLT-4 leukemia, 9.41 µM. In addition, the TGI amounted to 30.4 µM with OVCAR-5 ovarian, 25.5 µM in the experiment on RPMI-8226 leukemia and 29 µM in the experiment with U251 CNS.
On to `Cn1c(=O)c2sc3c4sc5c(=O)n(C)c6ccccc6c5c4sc3c2c2ccccc21`, for which the TGI with 786-0 renal, in the experiment on A498 renal, with ACHN renal, in the experiment on CAKI-1 renal, in the experiment on COLO 205 colon and with HOP-62 NSCLC was above 100 µM in each case. The TGI in the experiment with HOP-92 NSCLC, with IGROV1 ovarian, in the experiment on MALME-3M melanoma, with MDA-MB-231 breast, with MOLT-4 leukemia and in the experiment on NCI-H226 lung was above 100 µM each time. Further, the TGI in the experiment with OVCAR-5 ovarian, in the experiment with RPMI-8226 leukemia, in the experiment with SK-MEL-5 melanoma and in the experiment with U251 CNS was above 100 µM throughout.
Turning to `CC(C)(C)c1cc2c(c(C(C)(C)C)c1O)CC(=O)O2`, the TGI came out at 94.1 µM in the experiment with 786-0 renal; 94.7 µM with A498 renal; 55.5 µM in the experiment with ACHN renal; 37.6 µM in the experiment on COLO 205 colon; 92.8 µM in the experiment on HOP-62 NSCLC; 17.9 µM in the experiment with HOP-92 NSCLC. Besides, the TGI in the experiment with IGROV1 ovarian was 89.3 µM; in the experiment on LOX IMVI melanoma, above 100 µM; in the experiment with MDA-MB-231 breast, 75.4 µM; with MOLT-4 leukemia it was above 100 µM; in the experiment with NCI-H226 lung, 74.7 µM; in the experiment with OVCAR-5 ovarian, above 100 µM. Moreover, the TGI was 65 µM in the experiment on RPMI-8226 leukemia, 32.2 µM in the experiment with SK-MEL-5 melanoma and above 100 µM with U251 CNS.
As for `CN1CC(c2ccccc2)C(O)(C2(c3ccccc3)CN(C)CC(c3ccccc3)C2=O)C(c2ccccc2)C1` (stereo not given), the TGI in the experiment on 786-0 renal, with A498 renal, in the experiment with ACHN renal, in the experiment on CAKI-1 renal, in the experiment on COLO 205 colon and in the experiment on HOP-62 NSCLC was above 100 µM throughout. Moreover, the TGI with HOP-92 NSCLC, in the experiment with IGROV1 ovarian, in the experiment on LOX IMVI melanoma, in the experiment on MDA-MB-231 breast, in the experiment on MOLT-4 leukemia and in the experiment with NCI-H226 lung was above 100 µM each time. Moreover, the TGI with OVCAR-5 ovarian, in the experiment with RPMI-8226 leukemia, with SK-MEL-5 melanoma and with U251 CNS was above 100 µM in each case.
